Key:
[1] = MTT cell proliferation assay, BCRP-overexpressing cells; type: cell-based, canine; details: dog, MDCK-BCRP cells (MDCK cells transfected with wild-type BCRP), read-out: IC50 for inhibition of cell proliferation in MDCK-BCRP cells
Protocol: (§1) Madin-Darbey canine kidney (MDCK) cells transfected with pcDNA empty vector (MDCK-pcDNA3; MDCK-CT) and cDNA coding for wild-type BCRP (MDCK-BCRP) cells were a generous gift from Prof. Qingcheng Mao (University of Washington, Seattle, WA, USA). The human lung carcinoma cell lines A549 and HCC827 cells were provided by Prof. Eyal Mishani.
Madin-Darbey canine kidney vector (MDCK-pcDNA3) and MDCK-BCRP cells were grown in Eagle’s minimum essential medium (MEM) supplemented with 10% fetal bovine serum, 2 mM L-glutamine, 100 units/mL penicillin, and 100 μg/mL streptomycin, at 37∘C and 5% CO2-humidified incubator. The BCRP positive cells were selected by supplementation of 0.05 mg/mL gentamicin to the growth medium. The adherent cells, continuously cultivated in 10 cm^2 cell culture plates, were grown to nearly 80–90% confluence before they were harvested by trypsin-EDTA 0.25% solution. A549 were grown in Ham’s F12 growth medium and HCC827 were grown in RPMI-1640 growth medium. The cells were treated as described above.
(§2) The assay was performed as described earlier ([Rajendra et al., 2003]) with minor modifications. Briefly, Cells were seeded at density of 80 × 10^3 cells per well in 24 well plates. On the following day, the cells were incubated (in hexaplicates) with 0.2–102.4 μM of the tested EGFRIs or with the vehicle in the growth medium for 72 h. Then, the medium was removed and 300 μl of 0.5 mg/mL MTT solution in Hank’s Balanced Salt Solution (HBSS) was added to each well. After 2 h incubation at 37∘C, the MTT solution was removed and the cells were washed three times with HBSS, then the culture plates were incubated with 500 μl dimethyl sulphoxide (DMSO) for 15 min at room temperature. The absorption was detected at 540 nm using the Synergy plate reader. The proliferation of cells from MTT studies was expressed as a percent of control, DMSO-treated cells of the same type. An inhibitory sigmoidal model was fitted to the experimental data using Phoenix WinNonlin 6.3 (Pharsight, Mountain View, CA, USA).

MDCK-CT cells = assay: MTT cell proliferation assay, vector control cells; type: cell-based, canine; details: Canis lupus familiaris, 72 h, read-out: IC50 for inhibition of control cell proliferation
Protocol: as §1
Madin-Darbey canine kidney vector (MDCK-pcDNA3) and MDCK-BCRP cells were grown in Eagle’s minimum essential medium (MEM) supplemented with 10% fetal bovine serum, 2 mM L-glutamine, 100 units/mL penicillin, and 100 μg/mL streptomycin, at 37∘C and 5% CO2-humidified incubator. The BCRP positive cells were selected by supplementation of 0.05 mg/mL gentamicin to the growth medium. […] The cells were treated as described above.
as §2, with “Briefly,” for “The assay was performed as described earlier ([Rajendra et al., 2003]) with minor modifications. Briefly,”, “On the following day, the cells were incubated (in hexaplicates) with 0.2–102.4 μM of the tested EGFRIs or with the vehicle in the growth medium for 72 h.” left out

EGFR = system: EGFR; design: method as in earlier work; details: A431 cell lysates; ref Shaul et al., 2004; Mishani et al., 2005; Dissoki et al., 2007; read-out: EGFR binding potency IC50; cited from earlier work
human BCRP ATPase = target: T1, human BCRP ATPase (Homo sapiens, UniProt Q9UNQ0); assay: BCRP ATPase activation assay ([…] kit, Sf9 membrane preparations); type: biochemical; details: for Activation of BCRP ATPase: 400 nM (submicromolar), Sf9 membranes containing BCRP, vanadate-sensitive ATPase activity; for BCRP ATPase activation relative to that produced by gefitinib: 400 nM, Sf9 membranes
T1 construct: purchased SOLVO Biotechnology, Szeged, Hungary; host or cells: Sf9 membrane preparations
T1 sequence (Q9UNQ0 1-655): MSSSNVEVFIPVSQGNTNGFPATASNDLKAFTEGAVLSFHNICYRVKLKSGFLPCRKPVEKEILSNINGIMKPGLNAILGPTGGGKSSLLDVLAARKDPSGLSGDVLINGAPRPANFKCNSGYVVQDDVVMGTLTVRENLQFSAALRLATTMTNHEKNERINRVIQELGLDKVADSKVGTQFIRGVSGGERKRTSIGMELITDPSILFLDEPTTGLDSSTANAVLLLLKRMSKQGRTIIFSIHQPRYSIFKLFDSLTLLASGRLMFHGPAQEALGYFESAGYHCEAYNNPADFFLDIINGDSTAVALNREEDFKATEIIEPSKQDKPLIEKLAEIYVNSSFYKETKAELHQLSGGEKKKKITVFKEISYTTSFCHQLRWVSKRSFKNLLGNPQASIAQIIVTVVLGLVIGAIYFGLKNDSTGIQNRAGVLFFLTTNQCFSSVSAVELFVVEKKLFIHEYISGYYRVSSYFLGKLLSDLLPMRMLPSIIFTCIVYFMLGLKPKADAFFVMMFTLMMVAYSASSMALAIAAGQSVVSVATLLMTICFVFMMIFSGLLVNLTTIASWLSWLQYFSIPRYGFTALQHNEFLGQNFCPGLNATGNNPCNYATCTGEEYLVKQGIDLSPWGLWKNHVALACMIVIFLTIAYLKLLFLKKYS
Protocol: ATPase activity was evaluated using […] kits (SOLVO Biotechnology, Szeged, Hungary), according to the manufacturer’s instructions.
FIGURE 2 Interactions of EGFRIs with BCRP ATPase. (A) Activation of BCRP-ATPase in Sf9 membrane preparations containing BCRP. Membranes were incubated with ATP and the tested compounds at 400 nM in the presence and absence of sodium orthovanadate. (B) Inhibition of sulfasalazine-stimulated BCRP-ATPase. The effect of EGFRIs was evaluated in sulfasalazine (10 μM)-stimulated membranes. Data are presented as means ± SD of the vanadate-sensitive ATPase activity from two experiments in duplicates.

[2] = design: method as in Dissoki et al., 2007; details: ref Dissoki et al., 2007; cited from earlier work
BCRP = target: T2, BCRP (Homo sapiens, UniProt Q9UNQ0); assay: BODIPY-prazosin accumulation assay in MDCK-BCRP cells; type: cell-based; details: 500 nM BODIPY-prazosin, 1 h incubation; test compounds 400 nM
T2 construct: expressed in transfected cells; host or cells: MDCK (MDCKII) cells, pcDNA3 vector; gift from Prof; Qingcheng Mao
T2 sequence (Q9UNQ0 1-655): T1 sequence (Q9UNQ0 1-655)
Protocol: Accumulation assays with fluorescent substrates of eﬄux transporter are commonly utilized to determine the inhibitory effect of a test compound ([Brouwer et al., 2013]). In this study, MDCK-CT and MDCK-BCRP cells were seeded at density of 20 × 10^4 cells/well in 24 well plates. Experiments were performed two days after achieving 100% confluent monolayers. Prior to the experiment, the medium was removed and cells were incubated for 1 h with one of the test compounds dissolved in DMEM with 5 mM 4-(2-Hydroxyethyl)-1-piperazineethanesulfonic acid (HEPES), pH 7.4. In the accumulation phase cells were co-incubated with 500 nM BODIPY-prazosin (a BCRP/P-gp substrate; [Dey et al., 1997]; [Ni et al., 2010]) and one of the test compounds dissolved in DMEM with 5 mM HEPES. After 1 h, the cells were washed three times with ice-cold PBS. Intracellular fluorescence intensity of BODIPY-prazosin was measured within 1 h by a plate reader (Synergy HT, BioTek, Winooski, VT, USA) with excitation wavelength 485 nm and emission wavelength 528 nm.
FIGURE 4 Effect of EGFRIs on BODIPY-prazosin accumulation. Cell protein concentration-normalized BODIPY prazosin fluorescence in MDCK-BCRP cells were evaluated in the presence and the absence of 400 nM of the tested compounds following 1 h incubation.

P-gp = system: P-gp; design: method as in Abourbeh et al., 2007; details: ref Abourbeh et al., 2007; cited from earlier work

Compound | Activation of BCRP ATPase (human BCRP ATPase) | BCRP ATPase activation relative to that produced by gefitinib (human BCRP ATPase) | IC50 at 72 h [1] | IC50 (MDCK-CT cells) | IC50 (EGFR) | Log P [2] | BODIPY-prazosin accumulation in MDCK-BCRP cells (BCRP) | P-gp substrate status (P-gp)
COCC(=O)Nc1ccc2ncnc(Nc3cccc(Br)c3)c2c1 [methoxy-Br-ML03, N-{4-[(3-Bromo-phenyl)amino]-quinazoline-6-yl}-2-methoxyacetamide] | activated BCRP ATPase | – | > 50000 nM | 1800 ± 1200 nM | – | – | – | –
COCC(=O)Nc1ccc2ncnc(Nc3cc(Cl)c(Cl)cc3F)c2c1 [methoxy-ML03] | activated BCRP ATPase | – | – | – | 252 nM | – | – | –
O=C(CCl)Nc1cc2c(Nc3cc(Cl)c(Cl)cc3F)ncnc2cc1OCCOCCOCCOCCOCCOCCF [PEG6-ML05] | no activating effect | – | > 50000 nM | 2800 ± 3100 nM | 30 to 45 nM | 4.75 | – | –
COc1ccc2c3c([nH]c2c1)[C@H](C=C(C)C)N1C(=O)[C@@H]2CCCN2C(=O)[C@@H]1C3 [FTC, fumitremorgin C] | – | – | – | – | – | – | significantly (p < 0.01) enhanced | –

Further lines, with some results ahead:

Activation of BCRP ATPase (human BCRP ATPase) | BCRP ATPase activation relative to that produced by gefitinib (human BCRP ATPase) | Compound | IC50 at 72 h [1] | IC50 (MDCK-CT cells) | IC50 (EGFR) | Log P [2] | BODIPY-prazosin accumulation in MDCK-BCRP cells (BCRP) | P-gp substrate status (P-gp)
activated BCRP ATPase | ≤ 40% | CN(C)C/C=C/C(=O)Nc1ccc2ncnc(Nc3cccc(I)c3)c2c1 [ML06] | > 50000 nM | 2200 ± 700 nM | 0.05 to 5 nM | – | – | –
no activating effect | – | O=C(/C=C/CN(CCO)CCO)Nc1cc2c(Nc3cc(Cl)c(Cl)cc3F)ncnc2cc1OCCOCCOCCOCCF [ML10] | – | – | – | – | – | –
activated BCRP ATPase | ≤ 40% | O=C(CCl)Nc1ccc2ncnc(Nc3cc(Cl)c(Cl)cc3F)c2c1 [ML05] | – | – | 10 nM | 4.12 | – | –
activated BCRP ATPase | – | CN(C)C/C=C/C(=O)Nc1ccc2ncnc(Nc3cc(Cl)c(Cl)cc3F)c2c1 [ML04] | > 50000 nM | 2100 ± 600 nM | – | 3.9 | – | found to be a P-gp substrate

Source: PMC4240039, “Interactions of ABCG2 (BCRP) with epidermal growth factor receptor kinase inhibitors developed for molecular imaging” (Frontiers in Pharmacology, 2014)
